The values that follow are results of earlier work, collected in patent US20050032867A1, “Pharmaceutical composition comprising a 5ht1 receptor agonist” (priority 2001, published 2005).

SMILES strings stand for the structures.

On to `CNS(=O)(=O)Cc1ccc2[nH]cc(CCN(C)C)c2c1` [sumatriptan], for which the “effect of food on the overall bioavailability” value (administered orally) is reported as “no significant effect”. Also, the “delay of Tmax (time to maximum observed serum concentrations) by food” value (administered orally with food) was “about 0.5 hour”.
